One may read the viability as a per cent measure of how many cells are alive, often set against a control.

We go through four compounds from patent publication US20250161351A1 (priority 2022, published 2025).

What all share (test): cells
For test [1], the system named is Nomo-1 cells. Conditions: Homo sapiens, NOMO-1, 72 h, read-out: Relative cell viability compared to control.
The test system of test [2] is HL-60 cells. Conditions: Homo sapiens, HL-60, 72 h, read-out: Relative cell viability compared to control.
Test [3] relates to patient-derived primary AML cells HD-23. Conditions: 72 h, read-out: Relative cell viability compared to control.

Consider `Nc1ncn([C@@H]2O[C@H](CO)[C@@H](O)[C@H]2O)c(=O)n1` [Azacytidine, 4-Amino-1-β-D-ribofuranosyl-1,3,5-(1H)triazin-2-one], for which the viability at 1.5 µM in test [1] came to 67.1%.
With `O=C(Cc1cccc(OC(F)(F)F)c1)Nc1ccc(CCCCc2nnc(NC(=O)Cc3ccccn3)s2)nn1` [CB-839], the viability at 0.5 µM in test [1] is 96.1%; in test [2] it was 95.1%. In addition, the viability at 1 µM in test [1] came to 98.1%; in test [2], 92.1%; in test [3], 84.6%.
In the case of `C#CCC(N)C(=O)O` (stereo not shown) [PPG, 2-aminopent-4-ynoic acid], in test [1], the viability at 250 µM is 97.9%, the viability at 500 µM was determined as 96.6% and the viability at 1000 µM came out at 95.2%. In test [2], the viability at 250 µM amounted to 98.7%, the viability at 500 µM came out at 98.9% and the viability at 1000 µM turned out to be 97.9%. Also, the viability at 2000 µM in test [3] amounted to 92.9%.
Regarding `CC1(C)CCC(CN2CCN(c3ccc(C(=O)NS(=O)(=O)c4ccc(NCC5CCOCC5)c([N+](=O)[O-])c4)c(Oc4cnc5[nH]ccc5c4)c3)CC2)=C(c2ccc(Cl)cc2)C1` [Venetoclax, 4-[4-[[2-(4-Chlorophenyl)-4,4-dimethyl-1-cyclohexen-1-yl]methyl]-1-piperazinyl]-N-[[3-nitro-4-[[(tetrahydro-2H-pyran-4-yl)methyl]amino]phenyl]sulfonyl]-2-(1H-pyrrolo[2,3-b]pyridin-5-yloxy)benzamide], in test [1], the viability at 0.015625 µM was 93.8%, the viability at 0.03125 µM came out at 90.4%, the viability at 0.0625 µM came to 85.4% and the viability at 0.125 µM was 79.8%. In test [1], the viability at 0.5 µM is 63.6% and the viability at 1 µM was determined as 55.3%.
